Source: PubChem BioAssay AID248 (DTP/NCI, 2004)
Where “and” joins values, the source holds several entries; their conditions need not be identical. Identical values can stand only once. Toxic doses and inconclusive results are not listed. Cut-off read from the data, not from the text of the source: active = T/C of 150% or more; inactive = T/C below 125%.

Test system: L1210 leukemia ip in BDF1 mice, survival T/C
Experiment: NCI In Vivo Anticancer Drug Screen. Data for tumor model L1210 Leukemia (intraperitoneal) in B6D2F1 (BDF1) mice
Conditions: endpoint: mean survival time, higher = longer survival
Procedure, shortened: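 Tumor cells were implanted, animals were treated, and survival was followed. The result divides the treated measurement by the vehicle-control measurement.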

[1] = dose: 100.0 mg/kg/injection, schedule: Q01DX009 (ip), vehicle: Klucel (hydroxypropylcellulose) (HPC)
[2] = dose: 200.0 mg/kg/injection, schedule: Q01DX009 (ip), vehicle: Klucel (hydroxypropylcellulose) (HPC)
[3] = dose: 400.0 mg/kg/injection, schedule: Q01DX009 (ip), vehicle: Klucel (hydroxypropylcellulose) (HPC)
[4] = dose: 100.0 mg/kg/injection, schedule: Q01DX001 (ip), vehicle: saline
[5] = dose: 200.0 mg/kg/injection, schedule: Q01DX001 (ip), vehicle: saline
[6] = dose: 400.0 mg/kg/injection, schedule: Q01DX001 (ip), vehicle: saline
[7] = dose: 0.5 mg/kg/injection, schedule: Q01DX001 (ip), vehicle: saline
[8] = dose: 1.0 mg/kg/injection, schedule: Q01DX001 (ip), vehicle: saline
[9] = dose: 2.0 mg/kg/injection, schedule: Q01DX001 (ip), vehicle: saline
[10] = dose: 5.0 mg/kg/injection, schedule: Q01DX001 (ip), vehicle: saline
[11] = dose: 25.0 mg/kg/injection, schedule: Q01DX009 (ip), vehicle: saline
[12] = dose: 25.0 mg/kg/injection, schedule: Q04DX003 (ip), vehicle: saline
[13] = dose: 50.0 mg/kg/injection, schedule: Q01DX009 (ip), vehicle: saline
[14] = dose: 50.0 mg/kg/injection, schedule: Q04DX003 (ip), vehicle: saline
[15] = dose: 100.0 mg/kg/injection, schedule: Q04DX003 (ip), vehicle: saline
[16] = dose: 100.0 mg/kg/injection, schedule: Q04DX003 (ip), vehicle: Klucel (hydroxypropylcellulose) (HPC)
[17] = dose: 200.0 mg/kg/injection, schedule: Q04DX003 (ip), vehicle: Klucel (hydroxypropylcellulose) (HPC)

Measured: T/C

CC(=O)OC1CCC2(C)C(=CCC3C2CCC2(C)C(OC(=O)c4ccccc4)CCC32)C1 (configuration not stated)
inactive: dose: 100.0 mg/kg/injection, schedule: Q01DX009 (ip), vehicle: saline with Tween-80 89 % of control | dose: 200.0 mg/kg/injection, schedule: Q01DX009 (ip), vehicle: saline with Tween-80 110 % of control | dose: 400.0 mg/kg/injection, schedule: Q01DX009 (ip), vehicle: saline with Tween-80 96 % of control

COc1cc(/C=C(/C#N)[N+](=O)[O-])ccc1O
inactive: dose: 3.12 mg/kg/injection, schedule: Q01DX009 (ip), vehicle: DMSO 93 % of control | dose: 6.25 mg/kg/injection, schedule: Q01DX009 (ip), vehicle: DMSO 91 % of control | dose: 12.5 mg/kg/injection, schedule: Q01DX009 (ip), vehicle: DMSO 94 % of control | dose: 12.5 mg/kg/injection, schedule: Q04DX003 (ip), vehicle: DMSO 102 % of control | dose: 25.0 mg/kg/injection, schedule: Q01DX009 (ip), vehicle: DMSO 89 % of control | dose: 25.0 mg/kg/injection, schedule: Q04DX003 (ip), vehicle: DMSO 114 % of control | dose: 50.0 mg/kg/injection, schedule: Q01DX009 (ip), vehicle: DMSO 93 % of control | dose: 50.0 mg/kg/injection, schedule: Q04DX003 (ip), vehicle: DMSO 101 % of control

O=S(=O)(CCCBr)NC1CCCCC1
inactive: [1] 96 % of control | [2] 91 % of control | [3] 93 % of control

CCC(CC)C(O)(C(=O)O)C(CC)CC
inactive: [4] 95 % of control | [5] 89 % of control | [6] 97 % of control

CS(=O)CC(O)(c1ccccc1)c1ccccc1 (configuration not stated)
inactive: dose: 50.0 mg/kg/injection, schedule: Q01DX001 (ip), vehicle: saline 102 % of control | [4] 101 % of control | [5] 98 % of control | [6] 97 % of control

CN(C)C(=O)O/N=C(\c1ccccc1)C(F)(F)F
inactive: [7] 103 % of control | [8] 102 % of control | [9] 97 % of control

CCCCCCCC/C=C/CCCCCCCC(=O)NCC[N+]1(C)CCCCC1
inactive: dose: 75.0 mg/kg/injection, schedule: Q01DX001 (ip), vehicle: saline 95 % of control

Cc1cccc(/C=N\NC(=O)CCCC(=O)N/N=C/c2cccc(C)n2)n1
inactive: dose: 50.0 mg/kg/injection, schedule: Q01DX001 (ip), vehicle: carboxymethylcellulose (CMC) 88 % of control | dose: 100.0 mg/kg/injection, schedule: Q01DX001 (ip), vehicle: carboxymethylcellulose (CMC) 90 % of control

CC(=O)Oc1cccc2cc3cc(C)cc(OC(C)=O)c3c(OC(C)=O)c12
inactive: [7] 106 % of control | [8] 104 % of control | [9] 108 % of control | dose: 4.0 mg/kg/injection, schedule: Q01DX001 (ip), vehicle: saline 110 % of control | [10] 108 % of control | dose: 8.0 mg/kg/injection, schedule: Q01DX001 (ip), vehicle: saline 116 % of control

O=C(NNC(=O)c1cccc([N+](=O)[O-])c1)C(=O)NNC(=O)c1cccc([N+](=O)[O-])c1
inactive: [1] 100 % of control | [2] 110 % of control | [3] 105 % of control

Cc1cc([N+](=O)[O-])c2ccccc2[n+]1[O-]
inactive: dose: 25.0 mg/kg/injection, schedule: Q01DX009 (ip), vehicle: saline with Tween-80 96 % of control

COC(=O)c1cn[nH]c1N1CC[N+](CCCl)=N1
inactive: [11] 97 % of control | [12] 102 % of control | [13] 106 % of control | [14] 104 % of control | [4] 100 % of control | [15] 104 % of control

CCOC(=O)C(Oc1ccc([N+](=O)[O-])cc1)C(=O)OCC
inactive: [1] 98 % of control | [2] 98 % of control | [3] 96 % of control

CCOP1(=S)OCCO1
inactive: [16] 100 % of control | [17] 103 % of control

CC(=O)Nc1cc([N+](=O)[O-])ccc1O
inactive: [16] 101 % of control | [17] 101 % of control | dose: 400.0 mg/kg/injection, schedule: Q04DX003 (ip), vehicle: Klucel (hydroxypropylcellulose) (HPC) 101 % of control

C1=CC2CC3(OCCO3)C2C1 (configuration not stated)
inactive: dose: 100.0 mg/kg/injection, schedule: Q04DX003 (ip), vehicle: saline with Tween-80 95 % of control | dose: 200.0 mg/kg/injection, schedule: Q04DX003 (ip), vehicle: saline with Tween-80 92 % of control | dose: 400.0 mg/kg/injection, schedule: Q04DX003 (ip), vehicle: saline with Tween-80 92 % of control

C/C=C\C1OC1(C)c1cc(=O)c2c(C)cc3c(c2o1)C(=O)c1c(O)c(C2CC(C)(N(C)C)C(OC(C)=O)C(C)O2)cc(C2CC(N(C)C)C(O)C(C)O2)c1C3=O (configuration not stated)
inactive: dose: 0.35 mg/kg/injection, schedule: Q01DX009 (ip), vehicle: saline with Tween-80 103 % of control | dose: 0.7 mg/kg/injection, schedule: Q01DX009 (ip), vehicle: saline with Tween-80 102 % of control | dose: 1.4 mg/kg/injection, schedule: Q01DX009 (ip), vehicle: saline with Tween-80 96 % of control | dose: 2.8 mg/kg/injection, schedule: Q01DX009 (ip), vehicle: saline with Tween-80 88 % of control

CCCCCC(CN(C)C)C(O)/C=C/c1ccccc1Cl (configuration not stated)
inactive: [11] 102 % of control | [12] 96 % of control | [13] 94 % of control | [14] 97 % of control | [15] 95 % of control and 88 % of control

c1cc[c]([Sn]([O][Sn]([c]2ccccc2)([c]2ccccc2)[c]2ccccc2)([c]2ccccc2)[c]2ccccc2)cc1
inactive: [10] 102 % of control | dose: 10.0 mg/kg/injection, schedule: Q01DX001 (ip), vehicle: saline 100 % of control | dose: 20.0 mg/kg/injection, schedule: Q01DX001 (ip), vehicle: saline 102 % of control | dose: 40.0 mg/kg/injection, schedule: Q01DX001 (ip), vehicle: saline 93 % of control
